These results are taken from patent US4224448A, “2'-(5'-Nitrofuryl) substituted quinolines” (priority 1966, dated 1980).

In brackets after ≈: the same amount, converted by molar mass. Like-named read-outs stand apart in the source and are kept apart here.

What all share (assay): Minimum inhibitory concentration, conventional tube dilution method
Type in all cases: cell-based

In one assay the test system is Salmonella. Particulars: read-out: Minimal Inhibitory Concentration, Salm. The source says: (§1) The activity of some of the new nitrofuryl quinoline derivatives of the present invention is exemplified in Table 1 against a gram-positive (Staph. aureus), a gram-negative (Salmonella) bacterium and a fungus (Candida albicans). Table 1 indicates the minimum inhibitory concentration of the compound under reference in mg/100 cc required in order to inhibit the growth between 1 and 6 strains of each type. The measurements have been carried out by the conventional tube dilution method at 37 degrees after 24 hours.

The subject of a further assay is Candida albicans. As to conditions: fungus, tube dilution, 37 degrees, 24 hours, between 1 and 6 strains, mg/100 cc, decimal comma, read-out: Minimal Inhibitory Concentration, Cand. Alb.
From the text: as §1

The next assay concerns Staph. aureus. As to conditions: Staphylococcus aureus; gram-positive; tube dilution, 37 degrees, 24 hours; between 1 and 6 strains; mg/100 cc; decimal comma; read-out: Minimal Inhibitory Concentration, Staph. aureus.
From the text: as §1

Where [1] appears, read: gram-negative, tube dilution, 37 degrees, 24 hours, between 1 and 6 strains, mg/100 cc, decimal comma.

As to `CCc1ccc2nc(CC)cc(-c3ccc([N+](=O)[O-])o3)c2c1` [C2 H5 H NF H C2 H5 H H, 2-ethyl-4-[2'-(5'-nitrofuryl)]-6-ethyl quinoline], the MIC in the assay with Salmonella (setting [1]) is greater than 10 µg/mL; in the assay on Candida albicans, greater than 50 µg/mL.
On to `CCc1cc(-c2ccc([N+](=O)[O-])o2)c2cc(C)ccc2n1` [C2 H5 H NF H CH3 H H, 2-ethyl-4-[2'-(5'-nitrofuryl)]-6-methyl quinoline], for which the MIC was greater than 10 µg/mL in the assay with Salmonella (24 h) and less than 5 µg/mL in the assay on Candida albicans.
In the case of `CC(=O)OCc1cc(-c2ccc([N+](=O)[O-])o2)c2ccccc2n1` [CH2 OCOCH3 H NF H H H H, 2-acetoxymethyl-4-[2'-(5'-nitrofuryl)]quinoline], the MIC in the assay with Salmonella (setting [1]) is greater than 50 µg/mL; with Candida albicans it was 5 µg/mL (≈ 16 µM).
For `CC(=O)OCc1cc(-c2ccc([N+](=O)[O-])o2)c2ccc(OC(C)=O)cc2n1` [CH2 OCOCH3 H NF H H OCOCH3 H, 2-acetoxymethyl-4-[2'-(5'-nitrofuryl)]-7-acetoxy quinoline], the MIC was in the range of 10 to 25 µg/mL (≈ 27 to 67.5 µM) with Salmonella (setting [1]) and 50 to 100 µg/mL (≈ 135 to 270 µM) in the assay on Candida albicans.
As for `CCCCOc1ccc2c(-c3ccc([N+](=O)[O-])o3)cc(C)nc2c1` [CH3 H 5NF H H OC4 H9 H, 2-methyl-4-[2'-(5'-nitrofuryl)]-7-n-butoxy quinoline], the MIC in the assay with Candida albicans was greater than 50 µg/mL; in the assay on Staph. aureus, 0.5 µg/mL (≈ 1.53 µM).
For `CCc1cccc2c(-c3ccc([N+](=O)[O-])o3)cc(C)nc12` [CH3 H NF H H H C2 H5], the MIC was greater than 50 µg/mL in the assay with Salmonella (setting [1]) and 100 µg/mL (≈ 354 µM) in the assay on Candida albicans.
As to `Cc1cc(-c2ccc([N+](=O)[O-])o2)c2ccc(N)c(C)c2n1` [CH3 H NF H H NH2 CH3], the MIC in the assay on Salmonella (24 h) was 1 to 5 µg/mL (≈ 3.53 to 17.6 µM); with Candida albicans, 5 µg/mL (≈ 17.6 µM).
`COc1ccc2c(-c3ccc([N+](=O)[O-])o3)cc(C)nc2c1` [CH3 H NF H H OCH3 H, 2-methyl-4-[2'-(5'-nitrofuryl)]-7-methoxy quinoline]: the MIC was 10 µg/mL (≈ 35.2 µM) with Salmonella (setting [1]) and 5 µg/mL (≈ 17.6 µM) in the assay with Candida albicans.
In the same order, the values of `CC(=O)Oc1ccc2c(-c3ccc([N+](=O)[O-])o3)cc(C)nc2c1` [CH3 H NF H H OCOCH3 H] are 2 µg/mL (≈ 6.4 µM) and 10 µg/mL (≈ 32 µM).
As to `COc1cc2nc(C)cc(-c3ccc([N+](=O)[O-])o3)c2cc1N` [CH3 H NF H NH2 OCH3 H, 2-methyl-4-[2'-(5'-nitrofuryl)]-6-amino-7-methoxy-quinoline], the MIC is 1 to 5 µg/mL (≈ 3.34 to 16.7 µM) in the assay on Salmonella (setting [1]) and 5 µg/mL (≈ 16.7 µM) in the assay with Candida albicans.
In the same order, the values of `COc1cc2nc(C)cc(-c3ccc([N+](=O)[O-])o3)c2cc1NC(C)=O` [CH3 H NF H NHCOCH3 OCH3 H, 2-methyl-4-[2'-(5'-nitrofuryl)]-6-acetylamino-7-methoxy-quinoline] are greater than 50 µg/mL and 50 µg/mL (≈ 146 µM).
For `CCc1ccc2nc(C(C)C)cc(-c3ccc([N+](=O)[O-])o3)c2c1` [CH(CH3)2 H 5NF H C2 H5 H H, 2-isopropyl-4-[2'-(5'-nitrofuryl)]-6-ethyl quinoline], the MIC with Candida albicans is 50 µg/mL (≈ 161 µM); with Staph. aureus, 0.5 µg/mL (≈ 1.61 µM).
As for `O=[N+]([O-])c1ccc(-c2cc(C=NO)nc3ccccc23)o1` [CHNOH H NF H H H H, 4-[2'-(5'-nitrofuryl)]quinoline-2-carboxaldehyde oxime], the MIC with Salmonella (setting [1]) amounted to 5 µg/mL (≈ 17.7 µM); with Candida albicans, 10 µg/mL (≈ 35.3 µM).
Regarding `CCOc1ccc2c(-c3ccc([N+](=O)[O-])o3)cc(C=NO)nc2c1` [CHNOH H NF H H OC2 H5 H], the figures for the MIC in the assay with Salmonella (setting [1]) and in the assay with Candida albicans were greater than 50 µg/mL and 50 µg/mL (≈ 153 µM), respectively.
The corresponding values for `CC(=O)c1cc(-c2ccc([N+](=O)[O-])o2)c2ccccc2n1` [COCH3 H NF H H H H, 4-[2'-(5'-nitrofuryl)]quinoline-2-methyl ketone] are greater than 50 µg/mL and greater than 50 µg/mL.
As to `CCOC(=O)c1cc(-c2ccc([N+](=O)[O-])o2)c2ccccc2n1` [COOC2 H5 H NF H H H H, 2-carbethoxy-4-[2'-(5'-nitrofuryl)]quinoline], the MIC with Salmonella (setting [1]) and with Candida albicans was greater than 50 µg/mL throughout.
Regarding `CCc1cc(-c2ccc([N+](=O)[O-])o2)c2cc(C)ccc2[n+]1[O-]` [O C2 H5 H NF H CH3 H H], the MIC in the assay on Candida albicans is less than 5 µg/mL; in the assay on Staph. aureus it was 0.1 µg/mL (≈ 0.335 µM).
The corresponding values for `CCc1cc(-c2ccc([N+](=O)[O-])o2)c2ccc(OC)cc2[n+]1[O-]` [O C2 H5 H NF H H OCH3 H] are greater than 50 µg/mL and 0.01 to 0.5 µg/mL (≈ 0.0318 to 1.59 µM).
As for `CCc1cc(-c2ccc([N+](=O)[O-])o2)c2ccc(O)cc2[n+]1[O-]` [O C2 H5 H NF H H OH H], the MIC in the assay with Salmonella (setting [1]) stood at 5 µg/mL (≈ 16.7 µM); in the assay with Candida albicans, 25 µg/mL (≈ 83.3 µM).
In the same order, the values of `Cc1ccc2c(-c3ccc([N+](=O)[O-])o3)cc(C)[n+]([O-])c2c1` [O CH3 H NF H H CH3 H] are greater than 50 µg/mL and 5 µg/mL (≈ 17.6 µM).
Take `CCCCOc1ccc2c(-c3ccc([N+](=O)[O-])o3)cc(C)[n+]([O-])c2c1` [O CH3 H NF H H OC4 H9 H]: the MIC in the assay on Candida albicans was greater than 10 µg/mL; in the assay on Staph. aureus it was 0.5 to 1 µg/mL (≈ 1.46 to 2.92 µM).
Turning to `CC(=O)Oc1ccc2c(-c3ccc([N+](=O)[O-])o3)cc(C)[n+]([O-])c2c1` [O CH3 H NF H H OCOCH3 H], the MIC with Salmonella (setting [1]) turned out to be 5 µg/mL (≈ 15.2 µM); with Candida albicans, 50 µg/mL (≈ 152 µM).
For the compound `Cc1cc(-c2ccc([N+](=O)[O-])o2)c2ccc(O)cc2[n+]1[O-]` [O CH3 H NF H H OH H, 2-Methyl-4-[2'-(5'-nitrofuryl)]-7-hydroxy quinoline N-oxide], the MIC in the assay on Salmonella (setting [1]) was 5 to 10 µg/mL (≈ 17.5 to 34.9 µM); in the assay with Candida albicans, 100 µg/mL (≈ 349 µM).
Take `COc1cc2c(cc1N)c(-c1ccc([N+](=O)[O-])o1)cc(C)[n+]2[O-]` [O CH3 H NF H NH2 OCH3 H]: the MIC is 50 µg/mL (≈ 159 µM) in the assay on Salmonella (setting [1]) and greater than 50 µg/mL in the assay with Candida albicans.
In the same order, the values of `COc1cc2c(cc1NC(C)=O)c(-c1ccc([N+](=O)[O-])o1)cc(C)[n+]2[O-]` [O CH3 H NF H NHCOCH3 OCH3 H] are 10 to 25 µg/mL (≈ 28 to 70 µM) and 50 µg/mL (≈ 140 µM).
Take `COc1cc2c(-c3ccc([N+](=O)[O-])o3)cc(C)[n+]([O-])c2cc1OC` [O CH3 H NF H OCH3 OCH3 H]: the MIC in the assay on Salmonella (setting [1]) and with Candida albicans was greater than 50 µg/mL in each case.
As for `O=[N+]([O-])c1ccc(-c2cc(C=NO)[n+]([O-])c3ccccc23)o1` [O CHNOH H NF H H H H], the MIC with Salmonella (setting [1]) was 1 to 5 µg/mL (≈ 3.34 to 16.7 µM); in the assay with Candida albicans it was 0.5 µg/mL (≈ 1.67 µM).
In the case of `Cc1ccc2c(-c3ccc([N+](=O)[O-])o3)cc(C(=O)O)[n+]([O-])c2c1` [O COOH H NF H H CH3 H, 2-carboxy-4-[2'-(5'-nitrofuryl)]-7-methyl quinoline N-oxide], the MIC in the assay with Candida albicans was found to be 50 µg/mL (≈ 159 µM); in the assay on Staph. aureus, 0.5 µg/mL (≈ 1.59 µM).
`O=[N+]([O-])c1ccc(-c2ccc3ccccc3[n+]2[O-])o1` [O NF H H H H H H]: the MIC in the assay with Candida albicans is less than 5 µg/mL; in the assay on Staph. aureus, 0.5 µg/mL (≈ 1.95 µM).
As for `CNN=Cc1cc(-c2ccc([N+](=O)[O-])o2)c2ccccc2n1` [drawing 7 H NF H H H H], the results for the MIC in the assay with Salmonella (setting [1]) and in the assay on Candida albicans were 1 to 5 µg/mL (≈ 3.38 to 16.9 µM) and 10 to 25 µg/mL (≈ 33.8 to 84.4 µM), respectively.
Regarding `NC(=O)NN=Cc1cc(-c2ccc([N+](=O)[O-])o2)c2ccccc2n1` [drawing 8 H NF H H H H], the MIC in the assay on Salmonella (setting [1]) was 5 µg/mL (≈ 15.4 µM); in the assay on Candida albicans it was 25 to 50 µg/mL (≈ 76.9 to 154 µM).
`O=[N+]([O-])c1ccc(-c2cc(C=NNCCO)nc3ccccc23)o1` [drawing 9 H NF H H H H]: the MIC in the assay on Salmonella (setting [1]) turned out to be 5 µg/mL (≈ 15.3 µM); in the assay on Candida albicans it was 25 µg/mL (≈ 76.6 µM).
On to `O=C1OCCN1N=Cc1cc(-c2ccc([N+](=O)[O-])o2)c2ccccc2n1` [drawing 10 H NF H H H H], for which the MIC is 5 µg/mL (≈ 14.2 µM) in the assay with Candida albicans and 0.1 to 0.5 µg/mL (≈ 0.284 to 1.42 µM) in the assay with Staph. aureus.
